Measurements reported in US11439147B2, “3-pyridyl oxyaniline compound and use of same” (Sumitomo Chemical Company, Limited, priority 2016, dated 2022).

Key:
Assay type in all cases: in vivo
Echinochloa oryzicola [1] = test: Herbicidal effect, pot test in greenhouse (paddy water treatment); conditions: twelve days after treatment, visual index 0 (no effect) to 100 (complete kill)
Description: (§1) Herbicidal effect against Echinochloa oryzicola and Lindernia procumbens (Pot test in greenhouse) Soil was put in a plastic pot (φ 5 cm×5.5 cm), and soil was puddled, and the plastic pot was allowed to stand for 2 days, Lindernia procumbens seeds were mixed with soil, and sown to the surface of puddled soil in the pot. On the same day, the sprouted seeds of Echinochloa oryzicola were sown into about 0.5 cm depth from the soil surface of the pot, and the submerged depth was adjusted to about 2 cm. Treatment solutions containing the present, compound, the compound A, or the compound B were prepared by dissolving the present compound, the compound A, or the compound B in acetone, followed by diluting the resulting solutions with distilled water. On the same day as the sowing of Echinochloa oryzicola and Lindernia procumbens, the treatment solution containing the present compound, the compound A, or the compound B was poured into paddy water in the pot so that the application rates of the chemicals would be values indicated in Table 2. Twelve days after the treatment, the herbicidal effect on weeds was visually observed by classifying the effect into 0 to 100 indices (0 (no effect) to 100 (complete kill)).

Lindernia procumbens = test: as above; conditions: twelve days after treatment, visual index 0 (no effect) to 100 (complete kill)
Description: as §1

Amaranthus retroflexus = test: Post-emergence treatment test in a farmland (pot, foliar spray); conditions: application rate 4 kg/ha; two-leaf stage, sprayed; nine days after spraying; visual, 11 stages 0 (no effect) to 10 (complete kill)
Experimental: Test Example 1: Post-emergence treatment test in a farmland
Nursery soil was put in a plastic pot measuring 8 cm in diameter and 6.5 cm in height, and in the pot, seeds of Amaranthus retroflexus were sown, and then covered with soil of about 0.5 cm thickness, and the plants were grown in a greenhouse. When the Amaranthus retroflexus plants were grown to two-leaf stage, a diluted solution containing any one of the present compound, the compound A, or the compound B was uniformly sprayed on the whole Amaranthus retroflexus plants so that the application rates of the chemicals would be values indicated in Table 1.
Here the diluted solution was prepared by dissolving the present compound, the compound A, or the compound B in dimethylformamide solution containing 2% of Tween 20 (polyoxyethylene sorbitan fatty acid ester) (manufactured by MP Biomedicals Inc.) and then diluting the solution with deionized water.
The Amaranthus retroflexus plants that were sprayed with the diluted solution containing the present compound, the compound A, or the compound B were grown in a greenhouse. Nine clays after spraying, the efficacy for controlling Amaranthus retroflexus plants was observed, thereby examining a herbicidal effect. Here the herbicidal effect was visually observed and evaluated by classifying the effect into 11 stages from 0 (no effect) to 10 (complete kill).

Echinochloa oryzicola [2] = test: Hydroponic test of Echinochloa oryzicola; conditions: ten days, visual index 0 (no effect) to 100 (complete kill)
Experimental: Test Example 3: Hydroponic Test of Echinochloa oryzicola
Two (2) mL of distilled water was poured into a plastic tube (2.5 cm in inside diameter×10 cm in height). To the distilled water was added a solution in which the present compound or the compound A was dissolved in dimethyl sulfoxide to prepare the treatment solutions so that, the treatment concentration thereof would be values indicated in table 3. Next, four grains of sprouted Echinochloa oryzicola seeds were put in each treatment solution. The tubes were covered with parafilm, and the seeds were grown under the condition that a cultivation at 25° C. under lightning for 16 hours and a successive cultivation at 25° C. under dark for 8 hours were repeated. Ten days after the addition of the Echinochloa oryzicola seeds, the herbicidal effect on Echinochloa oryzicola was visually observed by classifying the effect into 0 to 100 indices (0 (no effect) to 100 (complete kill)).

Arabidopsis thaliana = test: Inhibitory activity on emergence of Arabidopsis thaliana; conditions: ten days after sowing, visual index 0: no effect to 100: no emergence
Experimental: Test Example 4: Inhibitory Activity on Emergence of Arabiclopsis thaliana Each well of 24 well microtiter plates was matted with a filter paper, and to the filter paper was added 150 μL of distilled water. To the distilled water was added a solution in which the present compound, the compound A, or the compound B was dissolved in dimethyl sulfoxide so that the concentration of each of the chemicals would be values indicated in Table 4. Next, seeds of Arabidopsis thaliana were sown into each well and grown under the condition that a cultivation at 25° C. under lighting for 16 hours and a successive cultivation at 25° C. under dark for 8 hours were repeated. Ten days after sowing, the inhibitory activity on emergence of Arabidopsis thaliana was visually evaluated by classifying the activity into 0 to 100 indices (0: no effect to 100: no emergence).

[3] = application rate 50 g/a into paddy water
[4] = application rate 100 g/a into paddy water
[5] = treatment concentration 125 ppm
[6] = treatment concentration 250 ppm
[7] = treatment concentration 500 ppm
[8] = treatment concentration 1000 ppm

SMILES	Herbicidal Effect Echinochloa oryzicola (Echinochloa oryzicola [1]; [3])	Herbicidal Effect Echinochloa oryzicola (Echinochloa oryzicola [1]; [4])	Herbicidal Effect Lindernia procumbens (Lindernia procumbens; [3])	Herbicidal Effect Lindernia procumbens (Lindernia procumbens; [4])	Herbicidal Effect (Amaranthus retroflexus)	Herbicidal Effect (Echinochloa oryzicola [2]; [5])	Herbicidal Effect (Echinochloa oryzicola [2]; [6])	Herbicidal Effect (Echinochloa oryzicola [2]; [7])	Inhibitory Activity on Emergence (Arabidopsis thaliana; [7])	Inhibitory Activity on Emergence (Arabidopsis thaliana; [8])
CCOC(=O)COc1ncccc1Oc1cc(N)c(F)cc1Cl [Compound A, 4-chloro-2-fluoro-5-{2-(ethoxycarbonyl)methoxy-3-pyridyloxy}aniline]	0	10	0	0	1	0	0	0	0	0
CCOC(=O)COc1ncccc1Oc1cc(NC(=O)CC(=O)C(F)(F)F)c(F)cc1Cl [Compound B]	0	0	0	0	3				0	0
CCOC(=O)COc1ncccc1Oc1cc(NC(=O)C=C(Nc2cc(Oc3cccnc3OCC(=O)OCC)c(Cl)cc2F)C(F)(F)F)c(F)cc1Cl [Present compound]	100	100	50	60	8	100	100	100	100	100
